pEC50, pIC50: −log10 of the molar value.
Tests used:
[1] = system: Human immunodeficiency virus 1; test: Antiviral activity against HIV-1 IIIb infected in human MT2 cells assessed as reduction in virus induced cytopathic effect and measured after 5 days by XTT assay; assay type: functional, organism-based; conditions: Human immunodeficiency virus 1, IIIb, MT2, 120 h
[2] = system: SARS-CoV; test: Antiviral activity against SARS 2019-nCoV infected in African green monkey Vero E6 cells assessed as inhibition of viral infection preincubated and measured after 48 hrs by qRT-PCR analysis; assay type: functional; conditions: Severe acute respiratory syndrome-related coronavirus, Vero C1008
[3] = Inhibition of TNF-alpha release in LPS stimulated human PBMC; assay type: functional, cell-based

C[C@H](Cn1cnc2c(N)ncnc21)OCP(=O)(O)O [TENOFOVIR ANHYDROUS]
pEC50 [1]: 5.30

C[C@H](Cn1cnc2c(N)ncnc21)OCP(=O)(O)N[C@H](C)C(=O)O
pEC50 [1]: 5.00

CCC(CC)COC(=O)[C@H](C)N[P@](=O)(OC[C@H]1O[C@@](C#N)(c2ccc3c(N)ncnn23)[C@H](O)[C@@H]1O)Oc1ccccc1 [REMDESIVIR]
EC90 [2]: 1.76 µM

Nc1cccc2c1CN(C1CCC(=O)NC1=O)C2=O (centres undefined) [LENALIDOMIDE]
pIC50 [3]: 7.00
